# According to PMC9864251 (Viruses, 2022):
# Experiments:
# HuNoV (GII.4) RdRp [1] = target: T1, HuNoV (GII.4) RdRp (Norovirus GII.4 (Human norovirus, Norovirus norwalkense), UniProt P54634); assay: Gel-based (gel-shift) RdRp primed elongation assay with PE44-NoV template; assay type: biochemical; details: compounds at fixed concentration of 100 μM
# RAW 264.7 cells = assay: Cytotoxicity by the MTS method in uninfected RAW 264.7 cells; assay type: cell-based, mouse; details: 3 days, 0.6–100 μM range, mean ± SD, at least three independent experiments
# [2] = set-up: method as in earlier work; details: cited from earlier work
# NoV = tested on: NoV; set-up: method as in earlier work; details: cited from earlier work
# MNVpol = tested on: MNVpol; set-up: method as in earlier work; details: cited from earlier work
# HuNoVpol = tested on: HuNoVpol; set-up: method as in earlier work; details: cited from earlier work
# [3] = tested on: MNV (virus strain MNV-1.CW1); assay: MNV antiviral MTS-based cytopathic effect; assay type: cell-based, murine norovirus; details: Norwalk virus, RAW264.7, 72 h, read-out: MNV EC50
# HuNoV (GII.4) RdRp [4] = target: T1, HuNoV (GII.4) RdRp; details: activity data as previously reported ref 18,19, read-out: In Vitro RdRp Activity Assay IC50; cited from earlier work
# HuNoV (GII.4) RdRp [5] = target: T1, HuNoV (GII.4) RdRp; assay: Quantitative fluorescent RdRp activity assay (PicoGreen, poly(C) template); assay type: biochemical; details: compounds at 20 μM in triplicate, normalized to DMSO control
# MNV = tested on: MNV; set-up: method as in earlier work; details: cited from earlier work
# T1 sequence (P54634 1190-1699): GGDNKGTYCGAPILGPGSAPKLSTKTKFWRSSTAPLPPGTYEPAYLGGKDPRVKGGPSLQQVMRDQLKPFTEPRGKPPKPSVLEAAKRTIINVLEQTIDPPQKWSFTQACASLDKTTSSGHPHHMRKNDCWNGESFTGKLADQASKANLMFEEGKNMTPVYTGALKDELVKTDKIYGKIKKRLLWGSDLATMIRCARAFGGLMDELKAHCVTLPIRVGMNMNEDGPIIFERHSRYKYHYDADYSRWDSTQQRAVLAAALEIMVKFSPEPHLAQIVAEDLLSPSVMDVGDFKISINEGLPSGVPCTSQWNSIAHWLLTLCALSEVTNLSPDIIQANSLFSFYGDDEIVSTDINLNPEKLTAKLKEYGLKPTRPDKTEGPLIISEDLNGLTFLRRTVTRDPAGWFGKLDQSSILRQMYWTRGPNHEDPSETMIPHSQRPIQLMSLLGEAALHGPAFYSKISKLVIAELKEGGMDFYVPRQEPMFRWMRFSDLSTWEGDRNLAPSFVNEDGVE
smiles,measurement,setting,value
O=C1NN(c2ccc(O)cc2)C(=O)/C1=C/c1ccc(-c2ccc(S(=O)(=O)Nc3ccccc3)cc2)o1 [Compound 5a],Inhibition of RdRp primed elongation activity (gel-shift),HuNoV (GII.4) RdRp [1],nearly complete inhibition
same,MNV CC50,RAW 264.7 cells,CC50 value in the low micromolar range
O=C(CN1C(=O)S/C(=C\c2ccc(-c3ccc(OP(=O)(O)O)cc3)o2)C1=O)N1CCOCC1 [Compound 4c],Inhibition of RdRp primed elongation activity (gel-shift),HuNoV (GII.4) RdRp [1],partial inhibition
"C[C@@]1(O)[C@H](O)[C@@H](CO)O[C@H]1n1ccc(N)nc1=O [Compound 2-CMC, 2′-C-methylcytidine]",CC50,[2],> 100 µM
same,EC50,NoV,8.2 µM
O=C(CN1C(=O)S/C(=C\c2ccc(-c3ccc(O)cc3)o2)C1=O)N1CCOCC1 [Compound 4b],Inhibition of RdRp primed elongation activity (gel-shift),HuNoV (GII.4) RdRp [1],significant but partial inhibition
same,MNV CC50,RAW 264.7 cells,cytotoxic effect in the micromolar range
Cc1ccc(C(=O)Nc2ccc(S(=O)(=O)O)c3cc(S(=O)(=O)O)cc(S(=O)(=O)O)c23)cc1NC(=O)c1cccc(NC(=O)Nc2cccc(C(=O)Nc3cc(C(=O)Nc4ccc(S(=O)(=O)O)c5cc(S(=O)(=O)O)cc(S(=O)(=O)O)c45)ccc3C)c2)c1 [Suramin],IC50,MNVpol,0.07 µM
same,IC50,HuNoVpol,0.025 µM
Cc1ccc(NC(=O)CS(=O)(=O)c2n[nH]c(-c3ccccc3O)n2)c(C)c1 [Compound 1f],Inhibition of RdRp primed elongation activity (gel-shift),HuNoV (GII.4) RdRp [1],partial inhibition
same,MNV CC50,RAW 264.7 cells,not associated with any cytotoxicity
O=C1NN(c2ccccc2)C(=O)/C1=C/c1ccc(-c2ccc(S(=O)(=O)Nc3ccccc3)cc2)o1 [Compound 5],EC50,[3],> 100 µM
same,Inhibition of RdRp primed elongation activity (gel-shift),HuNoV (GII.4) RdRp [1],completely abolish
same,IC50,HuNoV (GII.4) RdRp [4],5.6 µM
Cc1cc(C(=O)O)ccc1-c1ccc(/C=C2\SC(=O)N(CC(=O)N3CCOCC3)C2=O)o1 [Compound 4],MNV CC50,RAW 264.7 cells,did not display any cytotoxicity
same,IC50,HuNoV (GII.4) RdRp [4],15 µM
COc1ccc(N2C(=O)c3ccc(C(=O)O)cc3C2=O)cc1NC(=O)c1ccccc1 [Compound 2],Inhibition of RdRp primed elongation activity (gel-shift),HuNoV (GII.4) RdRp [1],partial inhibition
same,Inhibition of HuNoV RdRp activity at 20 μM,HuNoV (GII.4) RdRp [5],limited RdRp inhibition
"Cc1nc(/N=N/c2cc(S(=O)(=O)O)c3cc([N+](=O)[O-])cc(S(=O)(=O)O)c3c2)c(COP(=O)(O)O)c(C=O)c1O [PPNDS, reference compound]",Inhibition of RdRp primed elongation activity (gel-shift),HuNoV (GII.4) RdRp [1],complete inhibition
same,IC50,HuNoVpol,0.45 µM
same,IC50,HuNoV (GII.4) RdRp [4],1.5 ± 0.25 µM
NC(=O)c1ncn([C@@H]2O[C@H](CO)[C@@H](O)[C@H]2O)n1 [Ribavirin],CC50,[2],> 100 µM
same,EC50,NoV,43 µM
O=C(Nc1cccc(N2C(=O)c3ccccc3C2=O)c1)c1ccccc1 [Compound 2e],Inhibition of HuNoV RdRp activity at 20 μM,HuNoV (GII.4) RdRp [5],loss of inhibitory activity
Cc1ccc(NC(=O)CSc2n[nH]c(-c3ccccc3O)n2)cc1 [Compound 1b],Inhibition of RdRp primed elongation activity (gel-shift),HuNoV (GII.4) RdRp [1],partial inhibition
O=C(N/N=C/c1ccc(O)cc1O)c1ccccc1OCc1ccccc1 [Compound 3a],Inhibition of RdRp primed elongation activity (gel-shift),HuNoV (GII.4) RdRp [1],did not show significant inhibition
same,Inhibition of HuNoV RdRp activity at 20 μM,HuNoV (GII.4) RdRp [5],modest inhibition
Cc1ccc(NC(=O)C[S+]([O-])c2n[nH]c(-c3ccccc3O)n2)c(C)c1 (stereo not drawn) [Compound 1e],Inhibition of HuNoV RdRp activity at 20 μM,HuNoV (GII.4) RdRp [5],loss of inhibitory activity
"NC(=O)c1nc(F)c[nH]c1=O [Compound T-705, Favipiravir]",CC50,[2],> 100 µM
same,EC50,NoV,21 µM
O=C(N/N=C/c1ccc(OCc2ccccc2)cc1O)c1ccccc1O [Compound 3b],Inhibition of RdRp primed elongation activity (gel-shift),HuNoV (GII.4) RdRp [1],did not show significant inhibition
same,Inhibition of HuNoV RdRp activity at 20 μM,HuNoV (GII.4) RdRp [5],modest inhibition
Cc1ccc(NC(=O)CSc2n[nH]c(-c3ccccc3O)n2)c(C)c1 [Compound 1],Inhibition of RdRp primed elongation activity (gel-shift),HuNoV (GII.4) RdRp [1],partial inhibition
Cc1cc(O)ccc1-c1ccc(/C=C2\SC(=O)N(CC(=O)N3CCOCC3)C2=O)o1 [Compound 4a],Inhibition of HuNoV RdRp activity at 20 μM,HuNoV (GII.4) RdRp [5],modest inhibition
Cc1nc(-c2ccccc2)sc1C(=O)Nc1sc2c(c1C#N)CCC2 [NIC02],EC50,MNV,4.8 µM
same,IC50,HuNoVpol,5 µM
